# Assay results: patent US11103458B2, “Stimulant abuse-deterrent compositions” (4P-Pharma, priority 2015, dated 2021)
# Values joined by “and” are separate entries in the source; they are usually repeats but may differ in a detail not shown here. Identical values can stand only once. “Also recorded” adds a separate entry of the source. Counter-ions that a name gives are not always drawn. Like-named read-outs stand apart in the source and are kept apart here. Marks after values point to notes of the source that are not given here.
# Legend:
# Male C57BI mice = assay: Apomorphine mediated inhibition of RITALIN®-induced hyperactivity in activity box (pilot study, Example 5); format: in vivo; settings: for locomotion after apomorphine alone: given at 5 mg/kg, 5 mg/kg
# Protocol: Male mice C57BI weighing about 22 g were used in the study.
# Male C57BI mice weighing about 22 g were used in the study.
# Mice were administered saline solutions of the two actives as follows:
# Methylphenidate was dissolved in saline 0.9% to a concentration of 0.5 mg/ml,
# Both compounds' solutions were administered at dose volume of […].
# Animals' motor locomotion in four groups (1-4 M) was assessed in the activity box. Animals were placed in the activity box and several parameters were observed including movement time, distance, V-plan entries, margin vs. center time, and other parameters. Groups 1-3 M were monitored for 30 minutes each, during which all parameters were assessed at 2 minutes intervals. In the 4 M group, animals were monitored for 60 minutes with 2 minutes assessment intervals. The assessment in the activity box was done in total darkness (red light was used for illumination). The main parameters that were calculated in this study were the move time, total distance and vertical plan entry. The observation for groups 1-3 M were made during 30 minutes with 2 minutes calculation intervals of each parameter. In the fourth group (4 M) the observations were extended for 60 minutes with 2 minutes calculation intervals
# C57bl/6J male mice = assay: Open Field Test (OFT, activity box) with Methylphenidate, Apomorphine and their combination (Example 7); format: in vivo; settings: for effect on Methylphenidate-increased distance travelled and velocity: Methylphenidate 5 mg/kg, dose dependent; for Center Time / Distance / Rearing Time / Velocity: Day 1, group average
# Protocol: Eight groups comprising eight or nine C57bl/6J male mice were assigned for this study. Methylphenidate (MPH) was used as the model inducer. […] Spontaneous activity in Open Field Test (OFT) was performed.
# Each Test Item and vehicle formulation was administrated to 8/9 mice per group. The administration was performed PO or IP according to group allocation in Table 1.
# The open field test (OFT) is a commonly used qualitative and quantitative measure of general locomotor activity and willingness to explore in rodents. Open Field test (OFT) was performed according to Pharmaseed SOP No. 113: “Open Field for Mice Testing”. OFT was performed 15 or 30 min after test item IP or PO administration, respectively.
# Fifteen minutes after test item/vehicle administration, mice were placed at the center of an open field box (43×43×40 cm) approximately at the same time of the day. On each side of the open field box, two frames placed at 2 and 5 cm height with 16 photocell beams per side ensured movement detection. The computer defined grid lines that divided the open field into two compartments: margin and center. Several variables were recorded during a 15 minute session of spontaneous activity including: • Indices of motor exploratory activity: distance travelled, moving time, and velocity • Indices of habituation: distance travelled during the last 5-min period in percent of the first+last 5-min periods. • Indices of anxiety: percentage of distance travelled and time spent in the central zone of the open-field. • Curiosity activity: rearing episodes and time Open Field Test (Activity Box)
# OFT was performed 15 or 30 min after test item IP or PO administration, respectively. The parameters measured were distance and velocity as indicators of general motility, time spent in center as an indicator for anxiety and rearing time as indicator of the animal's curiosity.
# dogs [1] = settings: general statement, not this study, cited from earlier work
# mice = assay: Apomorphine blocking of RITALIN®-induced hyperactivity at human equivalent dosing (second study, Example 6); format: in vivo; settings: mice (n=4)
# dogs [2] = assay: Apomorphine-induced emesis in dogs (Example 8); format: in vivo; settings: for apomorphine-induced emesis: apomorphine IV 0.15 mg/kg, alone (group 3) or with MPH 1.7 mg/kg (group 5)
# Description: Methylphenidate (MPH) was used as the model inducer.
# [3] = PK analysis of Methylphenidate and Apomorphine in dogs' plasma (Example 8); settings: for change in PK profile on co-administration: t-test: no statistical significance
# Protocol: (§1) Six groups comprising six dogs were assigned for this Example. Methylphenidate (MPH) was used as the model inducer. […] Behavioral observation was performed during 6 hours following test items administration and blood samples were taken on 4 dogs per group at 0.25, 0.5, 1, 1.5, 3, 4 and 6 hours post-administration for pharmacokinetic (PK) analysis.
# Blood Collection and PK analysis: For blood collection, a 5 ml syringe was used and blood sampling was directly collected at the jugular vein. Blood samples were collected in K3-EDTA tubes at the following time points: 0.25, 0.5, 1, 1.5, 3, 4 and 6 hours post-administration (7 samples). At each time point, 6 ml of blood was collected for 4 drug-treated dogs. Plasma samples were analyzed using LC-MS/MS and PK analysis was performed using the PK Solutions Version 2.0 program.
# dogs [4] = assay: Behavior observation: activity levels and clinical signs in dogs (Example 8); settings: for video observation: behavior associated to hyperactivity: first 60-100 min
# Protocol: as §1
# Animals: Mixed breed dogs (5 Males+7 females/12/3 to 5 years/10.5 to 18.5 kg, from SPM Biocameltec) were used in the studies outlined in this example.
# Administration of the test items: Each Test Item was administrated to 6 dogs per group. The administration was performed PO or IV according to group allocation in Table 3. The study was performed in 3 cycles and a period of wash-out of at least 10 days was respected between each cycle.
# Behavior observation: The animals were observed every 10 minutes during the first 2 hours post administration, and every 20 minutes thereafter, for 6 hours. Observations included respiratory, circulatory, autonomic and central nervous systems, somatomotor activity and behavior pattern (e.g. sedation, respiration rate, changes in mentation, gait, and the like).
compound,measurement,setting,value
"CN1CCc2cccc3c2[C@H]1Cc1ccc(O)c(O)c1-3 [Apomorphine, apomorphine]",locomotion after apomorphine alone,"Male C57BI mice; mice, activity box","caused a sudden ataxia in animals, with nearly still locomotion"
same,locomotion after apomorphine alone,"Male C57BI mice; mice, activity box, listed as apomorphine",induces hypoactivity and nearly ataxic behavior
same,effect on RITALIN®-induced hyperactivity,"Male C57BI mice; apomorphine injected 5 minutes after RITALIN®, apomorphine 5 mg/kg, RITALIN® 8 mg/kg",totally abolished the effect of RITALIN®; also recorded: total dominance of the effect induced by apomorphine
same,entering the vertical plan,"Male C57BI mice; apomorphine, mice, activity box",abolished
same,rearing time compared to Methylphenidate IP treated group (2M),"C57bl/6J male mice; Apomorphine 0.9 mg/kg IP in combination with Methylphenidate (7M), Day 1",significantly reduced rearing time
same,antagonism of Methylphenidate-caused elevation in locomotor activity,C57bl/6J male mice; Apomorphine 0.05-0.9 mg/kg IP with Methylphenidate 5 mg/kg,antagonized this effect in a dose-dependent manner
same,effect on Methylphenidate-increased distance travelled and velocity,"C57bl/6J male mice; combination with Apomorphine 0.9 mg/kg IP (7M), Day 1",significantly reduced
same,effect on Methylphenidate-increased distance travelled and velocity,"C57bl/6J male mice; combination with Apomorphine 0.3 mk/kg IP (6M), Day 1",significantly reduced
same,dose to induce vomiting in dogs,dogs [1]; IV,greater than 0.02 mg/kg
same,dose to induce vomiting in dogs,dogs [1]; PO,greater than 4 mg/kg
same,dose to induce vomiting in dogs,dogs [1]; SC,greater than 0.3 mg/kg
same,animals movement / RITALIN®-induced hyperactivity after apomorphine injection,mice; apomorphine 1.23 mg/Kg with RITALIN® 8.25 mg/Kg,dramatically decreased the animals movement
same,time to emesis post administration,"dogs [2]; apomorphine IV 0.15 mg/kg (group 3 and group 5), dogs",1 to 2 min
same,apomorphine-induced emesis,dogs [2]; dogs,inducing emesis
same,apomorphine-induced emesis,"dogs [2]; dogs, listed as apomorphine",observed in all treated dogs
same,induction of emesis,"dogs [2]; apomorphine PO 0.027 mg/kg (group 4), dogs",did not induce emesis
same,"Recorded time for observed emesis following apomorphine administration, individual dogs","dogs [2]; group #3 Apo IV 0.15 mg/kg, Dog 1 to Dog 6, listed as Apo, 0.15 mg/kg",1.0 minutes and 1.5 minutes and 1.1 minutes (2×) and 0.8 minutes and 0.9 minutes
same,"Recorded time for observed emesis following apomorphine administration, Mean","dogs [2]; group #3 Apo IV 0.15 mg/kg, mean of 6 dogs",1.1 min
same,plasma levels,"[3]; Apomorphine IV 0.15 mg/kg and PO 0.027 mg/kg, dogs' plasma, especially following oral administration",low levels
same,change in PK profile on co-administration,"[3]; Apomorphine co-administered with Methylphenidate, dogs",somewhat lower values
same,effect on MPH-induced clinical signs,"dogs [4]; apomorphine administered concomitantly with MPH (group 5), IV",abolished these MPH-induced clinical signs
same,effect on MPH-induced increase in activity,"dogs [4]; combination with Apomorphine 0.15 mg/kg IV (group 5), MPH 1.7 mg/kg IV, dogs",diminished the observed increases in activity; also recorded: significantly reduced the observed increase in activity; also recorded: significantly reduced these effects
same,video observation: behavior associated to hyperactivity,dogs [4]; group 5 (apomorphine 0.15 mg/kg + MPH 1.7 mg/kg IV),only with circling episodes
"COC(=O)C(c1ccccc1)C1CCCCN1 (centres unmarked) [Methylphenidate, methylphenidate HCl]",motor activity (move time and distance),"Male C57BI mice; RITALIN® 5 mg/kg, mice, activity box",induced hyperactivity
same,motor activity (move time and distance covered),"Male C57BI mice; RITALIN® 8 mg/kg, mice, activity box, HCl, 8 mg/kg",induced hyperactivity
same,change of move time and distance over time,"Male C57BI mice; RITALIN® induced group, 30 minutes observation",no significant change over time
same,Center Time,C57bl/6J male mice; MPH 5 mg/kg IP (2M),89.8 s
same,Distance,C57bl/6J male mice; MPH 5 mg/kg IP (2M),3147.1 cm
same,Rearing Time,C57bl/6J male mice; MPH 5 mg/kg IP (2M),114.3 s
same,Velocity,C57bl/6J male mice; MPH 5 mg/kg IP (2M),4.3 cm/s
same,Center Time,C57bl/6J male mice; MPH 5 mg/kg PO (3M),88.2 s
same,Rearing Time,C57bl/6J male mice; MPH 5 mg/kg PO (3M),104.5 s
same,Velocity,C57bl/6J male mice; MPH 5 mg/kg PO (3M),3.4 cm/s
same,Distance,"C57bl/6J male mice; MPH 5 mg/kg PO (3M), p < 0.05 vs. 2M",2198.4* cm
same,distance travelled and velocity compared to Vehicle-treated controls (1M),"C57bl/6J male mice; Methylphenidate 5 mg/kg IP (2M), Day 1, OFT, HCl",significantly increased; also recorded: caused elevation in locomotor activity
same,animals' activity post RITALIN® administration,mice; RITALIN® 8.25 mg/Kg,drastic increase in the animals' activity
same,change in PK profile on co-administration,"[3]; Methylphenidate co-administered with Apomorphine, dogs",somewhat higher values
same,effect of co-administration of Apomorphine on bioavailability or any other PK parameters,"[3]; Methylphenidate, dogs",not affected
same,bioavailability,"[3]; Methylphenidate, dogs, PO 0.3 mg/kg vs IV 1.7 mg/kg",comparable to values published previously in the literature
same,activity levels,"dogs [4]; MPH IV 1.7 mg/kg (group 1), dogs, notably during the first 60-100 min, HCl, 1.7 mg/kg",caused increased activity levels; also recorded: induced increased activity levels
same,activity levels,"dogs [4]; MPH IV 1.7 mg/kg (group 1), dogs, notably during the first 60-100 min, listed as MPH, HCl, 1.7 mg/kg",significantly increased dog activity levels
same,time until which clinical signs were observed post administration,"dogs [4]; MPH IV 1.7 mg/kg (group 1), at least the 30 first minutes, up to 110 minutes in one dog",50 to 70 min
same,activity levels,"dogs [4]; Methylphenidate PO 0.3 mg/kg (group 2), dogs, score corresponding to normal dogs",did not induce significant modification of activity levels
same,video observation: behavior associated to hyperactivity,dogs [4]; group 1 (MPH IV 1.7 mg/kg),"constant barking, jumping, walking/circling and a very dynamic state"
